From patent US8952024B2, “Herbicidal pyrimidone derivatives” (E I du Pont de Nemours and Company, priority 2009, dated 2015)

Experiments:
Test in all cases: Test B pre-/postemergence plant response
Format in all cases: in vivo
[1] = test system: ragweed (common ragweed, Ambrosia elatior); details: for Ragweed plant response rating (0 to 100 scale): 62 g ai/ha, 0 is no effect, 13 to 15 days
Summary of the method: (§1)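 Greenhouse herbicide screen. Pre- and postemergence (1- to 4-leaf) spray of compound in solvent/surfactant mixture; loam–sand soil for pre, peat/vermiculite medium for post. Visual control rating 0–100 at 13 to 15 days after treatment.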

[2] = test system: Surinam grass (Brachiaria decumbens); details: for Surinam Grass plant response rating (0 to 100 scale): 62 g ai/ha, 0 is no effect, 13 to 15 days
Summary of the method: as §1

[3] = test system: blackgrass (Alopecurus myosuroides); details: for Blackgrass plant response rating (0 to 100 scale): 62 g ai/ha, 0 is no effect, 13 to 15 days
Summary of the method: as §1

[4] = test system: green foxtail (Setaria viridis); details: for Foxtail, Green plant response rating (0 to 100 scale): 62 g ai/ha, 0 is no effect, 13 to 15 days
Summary of the method: as §1

[5] = test system: johnsongrass (Sorghum halepense); details: for Johnsongrass plant response rating (0 to 100 scale): 62 g ai/ha, 0 is no effect, 13 to 15 days
Summary of the method: as §1

[6] = test system: giant foxtail (Setaria faberii); details: for Foxtail, Giant plant response rating (0 to 100 scale): 62 g ai/ha, 0 is no effect, 13 to 15 days
Summary of the method: as §1

[7] = test system: velvetleaf (Abutilon theophrasti); details: for Velvetleaf plant response rating (0 to 100 scale): 62 g ai/ha, 0 is no effect, 13 to 15 days
Summary of the method: as §1

[8] = test system: woolly cupgrass (Eriochloa villosa); details: for Cupgrass, Woolly plant response rating (0 to 100 scale): 62 g ai/ha, 0 is no effect, 13 to 15 days
Summary of the method: as §1

[9] = test system: goosegrass (Eleusine indica); details: for Goosegrass plant response rating (0 to 100 scale): 62 g ai/ha, 0 is no effect, 13 to 15 days
Summary of the method: as §1

[10] = test system: large crabgrass (Digitaria sanguinalis); details: for Crabgrass, Large plant response rating (0 to 100 scale): 62 g ai/ha, 0 is no effect, 13 to 15 days
Summary of the method: as §1

[11] = test system: lambsquarters (Chenopodium album); details: for Lambsquarters plant response rating (0 to 100 scale): 62 g ai/ha, 0 is no effect, 13 to 15 days
Summary of the method: as §1

[12] = test system: kochia (Kochia scoparia); details: for Kochia plant response rating (0 to 100 scale): 62 g ai/ha, 0 is no effect, 13 to 15 days
Summary of the method: as §1

[13] = test system: Italian ryegrass (Lolium multiflorum); details: for Ryegrass, Italian plant response rating (0 to 100 scale): 62 g ai/ha, 0 is no effect, 13 to 15 days
Summary of the method: as §1

[14] = test system: corn (Zea mays); details: for Corn plant response rating (0 to 100 scale): 62 g ai/ha, 0 is no effect, 13 to 15 days
Summary of the method: as §1

[15] = test system: downy bromegrass (Bromus tectorum); details: for Bromegrass, Downy plant response rating (0 to 100 scale): 62 g ai/ha, 0 is no effect, 13 to 15 days
Summary of the method: as §1

[16] = test system: bermudagrass (Cynodon dactylon); details: for Bermudagrass plant response rating (0 to 100 scale): 62 g ai/ha, 0 is no effect, 13 to 15 days
Summary of the method: as §1

[17] = test system: yellow nutsedge (Cyperus esculentus); details: for Nutsedge, Yellow plant response rating (0 to 100 scale): 62 g ai/ha, 0 is no effect, 13 to 15 days
Summary of the method: as §1

[18] = 31 g ai/ha, postemergence, scale 0 to 100, 0 is no effect, 100 is complete control
[19] = postemergence, 100 is complete control
[20] = Postemergence, 250 g ai/ha, scale 0 to 100 (0 no effect, 100 complete control)
[21] = Postemergence, 125 g ai/ha, visual rating after 13 to 15 days, scale 0 (no effect) to 100 (complete control)

O=C1CCCC(O)=C1C(=O)c1cnc(C2CC2)n(-c2ccccc2)c1=O [Compound 87]
85: Plant response rating, Ragweed [1, 18] | Plant response rating, Surinam Grass [2, 20] | Plant response rating, Crabgrass, Large [10, 18] | Crabgrass, Large plant response rating (0 to 100 scale) [10, 19]
5: Plant response rating, Blackgrass [3, 18] | Blackgrass plant response rating (0 to 100 scale) [3, 19] | Plant response rating, Johnsongrass [5, 18] | Plant response rating, Ryegrass, Italian [13, 18]
25: Johnsongrass plant response rating (0 to 100 scale) [5, 19]
55: Corn plant response rating (0 to 100 scale) [14, 19]
45: Plant response rating, Johnsongrass [5, 20]
20: Plant response rating, Blackgrass [3, 21] | Plant response rating, Corn [14, 18] | Plant response rating, Bromegrass, Downy [15, 18]
95: Ragweed plant response rating (0 to 100 scale) [1, 19] | Plant response rating, Foxtail, Green [4, 20] | Plant response rating, Foxtail, Giant [6, 20] | Plant response rating, Crabgrass, Large [10, 21]
80: Foxtail, Green plant response rating (0 to 100 scale) [4, 19] | Foxtail, Giant plant response rating (0 to 100 scale) [6, 19] | Goosegrass plant response rating (0 to 100 scale) [9, 19] | Plant response rating, Bromegrass, Downy [15, 20]
60: Plant response rating, Ryegrass, Italian [13, 20] | Plant response rating, Bromegrass, Downy [15, 21] | Nutsedge, Yellow plant response rating (0 to 100 scale) [17, 19]
98: Plant response rating, Ragweed [1, 20] | Plant response rating, Goosegrass [9, 20] | Plant response rating, Crabgrass, Large [10, 20] | Plant response rating, Lambsquarters [11, 18] | Lambsquarters plant response rating (0 to 100 scale) [11, 19] | Plant response rating, Bermudagrass [16, 21]
40: Plant response rating, Blackgrass [3, 20]
75: Plant response rating, Surinam Grass [2, 18] | Surinam Grass plant response rating (0 to 100 scale) [2, 19] | Plant response rating, Foxtail, Green [4, 18] | Plant response rating, Foxtail, Giant [6, 18] | Cupgrass, Woolly plant response rating (0 to 100 scale) [8, 19] | Plant response rating, Cupgrass, Woolly [8, 21] | Plant response rating, Goosegrass [9, 18] | Plant response rating, Corn [14, 21] | Plant response rating, Corn [14, 20] | Plant response rating, Nutsedge, Yellow [17, 20]
10: Ryegrass, Italian plant response rating (0 to 100 scale) [13, 19] | Plant response rating, Nutsedge, Yellow [17, 18]
50: Plant response rating, Cupgrass, Woolly [8, 18] | Bromegrass, Downy plant response rating (0 to 100 scale) [15, 19]
100: Plant response rating, Velvetleaf [7, 18] | Velvetleaf plant response rating (0 to 100 scale) [7, 19] | Plant response rating, Velvetleaf [7, 20] | Plant response rating, Lambsquarters [11, 20] | Plant response rating, Kochia [12, 18] | Kochia plant response rating (0 to 100 scale) [12, 19] | Plant response rating, Kochia [12, 20] | Plant response rating, Bermudagrass [16, 20]
90: Plant response rating, Cupgrass, Woolly [8, 20] | Plant response rating, Bermudagrass [16, 18] | Bermudagrass plant response rating (0 to 100 scale) [16, 19]

O=C1CCCC(O)=C1C(=O)c1cnc(-c2ccccc2)n(C2CC2)c1=O [Compound 90]
5: Plant response rating, Blackgrass [3, 18] | Blackgrass plant response rating (0 to 100 scale) [3, 19] | Plant response rating, Blackgrass [3, 21] | Plant response rating, Bromegrass, Downy [15, 18] | Bromegrass, Downy plant response rating (0 to 100 scale) [15, 19]
90: Plant response rating, Foxtail, Green [4, 20]
95: Plant response rating, Ragweed [1, 20] | Lambsquarters plant response rating (0 to 100 scale) [11, 19]
75: Ragweed plant response rating (0 to 100 scale) [1, 19] | Plant response rating, Surinam Grass [2, 20] | Plant response rating, Goosegrass [9, 20] | Crabgrass, Large plant response rating (0 to 100 scale) [10, 19] | Plant response rating, Crabgrass, Large [10, 21] | Plant response rating, Corn [14, 20] | Plant response rating, Nutsedge, Yellow [17, 20]
98: Velvetleaf plant response rating (0 to 100 scale) [7, 19] | Plant response rating, Kochia [12, 20]
85: Plant response rating, Foxtail, Giant [6, 20] | Plant response rating, Velvetleaf [7, 18] | Plant response rating, Lambsquarters [11, 18] | Kochia plant response rating (0 to 100 scale) [12, 19] | Plant response rating, Bermudagrass [16, 21] | Plant response rating, Bermudagrass [16, 20]
50: Plant response rating, Cupgrass, Woolly [8, 21]
15: Plant response rating, Corn [14, 18]
55: Plant response rating, Cupgrass, Woolly [8, 20]
70: Foxtail, Giant plant response rating (0 to 100 scale) [6, 19] | Plant response rating, Bermudagrass [16, 18]
30: Plant response rating, Blackgrass [3, 20]
25: Johnsongrass plant response rating (0 to 100 scale) [5, 19] | Corn plant response rating (0 to 100 scale) [14, 19]
45: Plant response rating, Cupgrass, Woolly [8, 18] | Cupgrass, Woolly plant response rating (0 to 100 scale) [8, 19] | Plant response rating, Corn [14, 21]
65: Plant response rating, Surinam Grass [2, 18] | Surinam Grass plant response rating (0 to 100 scale) [2, 19] | Plant response rating, Foxtail, Green [4, 18] | Foxtail, Green plant response rating (0 to 100 scale) [4, 19] | Plant response rating, Johnsongrass [5, 20] | Plant response rating, Foxtail, Giant [6, 18] | Plant response rating, Crabgrass, Large [10, 18] | Plant response rating, Kochia [12, 18] | Nutsedge, Yellow plant response rating (0 to 100 scale) [17, 19]
10: Plant response rating, Johnsongrass [5, 18] | Plant response rating, Bromegrass, Downy [15, 21] | Plant response rating, Bromegrass, Downy [15, 20]
60: Plant response rating, Ragweed [1, 18] | Plant response rating, Goosegrass [9, 18] | Goosegrass plant response rating (0 to 100 scale) [9, 19] | Plant response rating, Nutsedge, Yellow [17, 18]
0: Plant response rating, Ryegrass, Italian [13, 18] | Ryegrass, Italian plant response rating (0 to 100 scale) [13, 19] | Plant response rating, Ryegrass, Italian [13, 20]
80: Plant response rating, Crabgrass, Large [10, 20] | Bermudagrass plant response rating (0 to 100 scale) [16, 19]
100: Plant response rating, Velvetleaf [7, 20] | Plant response rating, Lambsquarters [11, 20]

COCCOCCn1c(-c2ccccc2)ncc(C(=O)C2=C(O)CCCC2=O)c1=O [Compound 91]
100: Plant response rating, Johnsongrass [5, 20] | Velvetleaf plant response rating (0 to 100 scale) [7, 19] | Plant response rating, Velvetleaf [7, 20] | Plant response rating, Crabgrass, Large [10, 20] | Lambsquarters plant response rating (0 to 100 scale) [11, 19] | Plant response rating, Lambsquarters [11, 20]
98: Plant response rating, Ragweed [1, 20] | Surinam Grass plant response rating (0 to 100 scale) [2, 19] | Plant response rating, Surinam Grass [2, 20] | Plant response rating, Foxtail, Green [4, 20] | Foxtail, Giant plant response rating (0 to 100 scale) [6, 19] | Plant response rating, Foxtail, Giant [6, 20] | Plant response rating, Velvetleaf [7, 18] | Plant response rating, Cupgrass, Woolly [8, 21] | Plant response rating, Cupgrass, Woolly [8, 20] | Plant response rating, Crabgrass, Large [10, 21]
70: Plant response rating, Foxtail, Green [4, 18] | Plant response rating, Cupgrass, Woolly [8, 18]
95: Crabgrass, Large plant response rating (0 to 100 scale) [10, 19] | Plant response rating, Kochia [12, 20] | Bermudagrass plant response rating (0 to 100 scale) [16, 19] | Plant response rating, Bermudagrass [16, 21] | Plant response rating, Bermudagrass [16, 20]
65: Plant response rating, Johnsongrass [5, 18] | Nutsedge, Yellow plant response rating (0 to 100 scale) [17, 19]
85: Plant response rating, Ragweed [1, 18] | Ragweed plant response rating (0 to 100 scale) [1, 19] | Plant response rating, Surinam Grass [2, 18] | Foxtail, Green plant response rating (0 to 100 scale) [4, 19] | Plant response rating, Foxtail, Giant [6, 18] | Cupgrass, Woolly plant response rating (0 to 100 scale) [8, 19] | Plant response rating, Goosegrass [9, 20] | Plant response rating, Lambsquarters [11, 18]
20: Blackgrass plant response rating (0 to 100 scale) [3, 19] | Plant response rating, Kochia [12, 18] | Plant response rating, Ryegrass, Italian [13, 20]
5: Ryegrass, Italian plant response rating (0 to 100 scale) [13, 19] | Bromegrass, Downy plant response rating (0 to 100 scale) [15, 19] | Plant response rating, Bromegrass, Downy [15, 21]
30: Plant response rating, Blackgrass [3, 21] | Plant response rating, Goosegrass [9, 18] | Plant response rating, Bromegrass, Downy [15, 20]
90: Johnsongrass plant response rating (0 to 100 scale) [5, 19]
0: Plant response rating, Ryegrass, Italian [13, 18] | Plant response rating, Bromegrass, Downy [15, 18]
25: Plant response rating, Corn [14, 18]
10: Plant response rating, Blackgrass [3, 18]
75: Goosegrass plant response rating (0 to 100 scale) [9, 19] | Plant response rating, Bermudagrass [16, 18] | Plant response rating, Nutsedge, Yellow [17, 20]
50: Plant response rating, Blackgrass [3, 20] | Plant response rating, Nutsedge, Yellow [17, 18]
35: Corn plant response rating (0 to 100 scale) [14, 19]
80: Plant response rating, Crabgrass, Large [10, 18] | Kochia plant response rating (0 to 100 scale) [12, 19]
60: Plant response rating, Corn [14, 20]
45: Plant response rating, Corn [14, 21]
